In patent publication US5919761A, “Peptides for heparin and low molecular weight heparin anticoagulation reversal” (The Board of Regents of the University of Michigan, priority 1995, dated 1999):
Peptide text beside a SMILES is read from it.

What was measured:
[1] = Platelet and white blood cell count after LMWH reversal, canine study; format: in vivo; details: dogs, Logiparin
Description: In addition to the measurements reported on Table 6, studies were conducted to measure the activated partial thromboplastin time (aPTT), platelet count, and white blood cell count. […] However, the [+18B] variant produced greater aPTT reversal than protamine at the 3, 10 and 30 minute measurements (64%, 95%, and 93%, respectively, as compared to 50%, 83%, and 78%, respectively, for protamine).

[2] = Hemodynamic studies and total toxicity score after LMWH reversal, canine study; details: dogs
Description: (§2) Hemodynamic studies were conducted by measuring mean arterial pressure (MAP) in mm Mercury, maximum percent changes in cardiac output (CO) and systemic oxygen consumption (VO2), and heart rate (HR) in beats per minute. Measurements and calculations were made at baseline, before LMWH administration, 3 minutes before reversal, every 30 seconds for 5 minutes after reversal, and at 10, 20, and 30 minutes after reversal.
Total toxicity scores (TTS) were developed that reflected maximum declines in each of four parameters (MAP, CO, VO2 and HR) over the first 5 minutes after reversal. The maximum changes occurring in an individual dog over the first 5 minutes were divided by the standard deviation derived from the entire group of tested animals and the four scores were added, resulting in a TTS for each individual dog. The TTS values for each dog were then summed to obtain an average TTS and SD for each peptide studied. The more negative the value of TTS, the more toxic the compound.

[3] = Platelet count, leukocyte count and bleeding time after LMWH reversal at different rates, canine study; format: in vivo, dogs; details: dogs, Logiparin; administered over 10 sec
Description: (§3) The anticoagulation-reversing agents were administered rapidly over 10 seconds to maximize hemodynamic effects or more slowly over a 3 minute interval. Changes in LMWH anticoagulation occurring from metabolism alone were determined in a separate group of dogs not given any reversal agent.

LMWH (LHN-1, Logiparin) [4] = assay: Percent reversal of low molecular weight heparin anticoagulation, in vivo canine study, coagulation tests; set-up: species or system dogs; details: for aPTT reversal: Logiparin
Description: Anticoagulation reversal was assessed by a number of standard coagulation tests performed upon samples of venous blood: activated clotting time (ACT), heparin concentration by assay for FXa inhibitory activity (FXa), thrombin clotting time (TCT), and heparin concentration by assay for FIIa inhibitory activity (FIIa). Measurements were made 3 minutes prior to heparin reversal (baseline) and 3 minutes, 10 minutes, and 30 minutes post-administration of the heparin reversal agent. […] The coagulation data were corrected for naturally occurring metabolism.

LMWH (LHN-1, Logiparin) [5] = assay: Percent reversal of LMWH anticoagulation, agents administered at different rates, canine study; format: in vivo, dogs
Description: Anticoagulation reversal was assessed by a number of standard coagulation tests performed upon samples of venous blood in the manner described hereinabove. Measurements were made 3 minutes prior to heparin reversal (baseline) and 3 minutes, 10 minutes, and 30 minutes post-administration of the heparin reversal agent.

[6] = Hemodynamic studies and total toxicity score after LMWH reversal at different rates, canine study; details: dogs, Logiparin; administered over 10 sec
Description: as §3, §2
TTS were developed that reflected maximum declines in each of four parameters (MAP, CO, VO2 and HR) over the first 5 minutes after reversal in the same manner as described hereinabove.

[7] = Hemodynamic studies and total toxicity score after standard heparin reversal, canine study; details: dogs; for ΔMAP: average maximum decline in first five minutes after peptide administration; for average total toxicity score (TTS±SD): first 5 minutes after reversal, more negative = more toxic; for ΔCO / ΔVO2: maximum percent change
Description: As used hereinafter, the peptides will be identified by their total cationic charge value, e.g., [+8], [+16], etc.
Hemodynamic studies were conducted by measuring mean arterial pressure (MAP), heart rate (HR), and maximum percent changes in cardiac output (CO) and systemic oxygen consumption (VO2).
Total toxicity scores (TTS) were developed that reflected maximum declines in each of four parameters (MAP, CO, VO2 and HR) over the first 5 minutes after reversal, the latter being the time of expected greatest adverse hemodynamic effect. The maximum changes occurring in an individual dog over the first 5 minutes were divided by the standard deviation derived from the entire group of tested animals and the four scores were added, resulting in a TTS for each individual dog. The TTS values for each dog were then summed to obtain an average TTS and SD for each peptide studied.

[8] = Platelet and white cell counts after standard heparin reversal, canine study; format: in vivo; details: dogs, 3 minutes post-reversal, resolved by about 30 minutes
Description: (§1) Anticoagulation reversal was assessed by a number of standard coagulation tests performed upon samples of venous blood: activated clotting time (ACT), prothrombin time (PT), activated partial thromboplastin time (aPTT), thrombin clotting time (TCT), heparin concentration by assay for FXa inhibitory activity (FXa), white cell count (WBC), and platelet counts (PLT). Measurements were made 3 minutes prior to heparin reversal (baseline) and 3 minutes and 30 minutes post-administration of the heparin reversal agent. The "Heparin" row sets forth the observed reversal as a consequence of expected heparin metabolism or degradation alone.

[9] = system: standard, unfractionated heparin; assay: Percent reversal of standard heparin anticoagulation by variant peptides and protamine, in vivo canine study, coagulation tests; set-up: species or system dogs; details: for Percent reversal of heparin anticoagulation, ACT: heparin 150 IU/kg IV, agent 1.5 mg/kg IV over 10 seconds
Description: Data are expressed as a mean ±1 SD. Statistical analysis using linear regression for determination of correlation coefficients, and analysis of variance (ANOVA) or unpaired two-way Student's t-test; p<0.05 was accepted as statistically significant.
as §1

[10] = Logiparin, maximum percent change
[11] = administered over 10 sec, 3 min
[12] = administered over 10 sec, 10 min
[13] = administered over 10 sec, 30 min

CC(=O)N1CCC[C@H]1C(=O)N[C@@H](C)C(=O)N[C@@H](CCCCN)C(=O)N[C@@H](CCCCN)C(=O)N[C@@H](C)C(=O)N[C@@H](C)C(=O)N[C@@H](CCCCN)C(=O)N[C@@H](CCCCN)C(=O)N[C@@H](C)C(=O)N[C@@H](CCCCN)C(=O)N[C@@H](CCCCN)C(=O)N[C@@H](C)C(=O)N[C@@H](C)C(=O)N[C@@H](CCCCN)C(=O)N[C@@H](CCCCN)C(=O)N[C@@H](C)C(=O)N[C@@H](CCCCN)C(=O)N[C@@H](CCCCN)C(=O)N[C@@H](C)C(=O)N[C@@H](C)C(=O)N[C@@H](CCCCN)C(=O)N[C@@H](CCCCN)C(=O)N[C@@H](C)C(=O)N[C@@H](CCCCN)C(=O)N[C@@H](CCCCN)C(=O)N[C@@H](C)C(=O)N[C@@H](C)C(=O)N[C@@H](CCCCN)C(=O)N[C@@H](CCCCN)C(=O)N[C@@H](C)C(=O)N[C@@H](CCCCN)C(=O)N[C@@H](CCCCN)C(N)=O [[+18B], acetyl-PA(K2 A2 K2 A)4 K2 -amide] (Ac-PAKKAAKKAKKAAKKAKKAAKKAKKAAKKAKK-NH2)
decline in white blood cell count [1]: greatest | mean decline in platelet count [1]: -56% | Total Toxicity Score ([2]; LMWH, 50% less dose (1:2 peptide to LMWH)): about -1.62 | maximum mean increase in pulmonary artery diastolic (PAD) pressure ([2]; Logiparin): no increase | maximum mean increase in pulmonary artery systolic (PAS) pressure ([2]; Logiparin): no increase | ΔHR ([2]; Logiparin): -9 beats per minute | ΔMAP ([2]; Logiparin): -10 mm Mercury | Total Toxicity Score ([2]; Logiparin, first 5 minutes after reversal, 1:1 peptide to LMWH): -4.1 ± 1.6 | ΔCO [2, 10]: -18% | ΔVO2 [2, 10]: -12% | Maximal decline in leukocyte count [3]: -21% | Maximal thrombocytopenia [3]: -56% | aPTT reversal (LMWH (LHN-1, Logiparin) [4]; dogs, 3 minute measurement): 64% | aPTT reversal (LMWH (LHN-1, Logiparin) [4]; dogs, 10 minute measurement): 95% | aPTT reversal (LMWH (LHN-1, Logiparin) [4]; dogs, 30 minute measurement): 93% | Percent reversal of LMWH anticoagulation, ACT (LMWH (LHN-1, Logiparin) [4]; dogs, Logiparin 150 IU/kg, agent 1.5 mg/kg IV after 30 min, 3 min post-administration, corrected for metabolism): 87% | Percent reversal of LMWH anticoagulation, FNa (LMWH (LHN-1, Logiparin) [4]; same study, 3 min): 96% | Percent reversal of LMWH anticoagulation, FXa (LMWH (LHN-1, Logiparin) [4]; same study, 3 min): 64% | Percent reversal of LMWH anticoagulation, TCT (LMWH (LHN-1, Logiparin) [4]; same study, 3 min): 99% | Percent reversal of LMWH anticoagulation, ACT (LMWH (LHN-1, Logiparin) [4]; same study, 10 min): 93% | Percent reversal of LMWH anticoagulation, FNa (LMWH (LHN-1, Logiparin) [4]; same study, 10 min): 72% | Percent reversal of LMWH anticoagulation, FXa (LMWH (LHN-1, Logiparin) [4]; same study, 10 min): 34% | Percent reversal of LMWH anticoagulation, TCT (LMWH (LHN-1, Logiparin) [4]; same study, 10 min): 95% | Percent reversal of LMWH anticoagulation, ACT (LMWH (LHN-1, Logiparin) [4]; same study, 30 min): 102% | Percent reversal of LMWH anticoagulation, FNa (LMWH (LHN-1, Logiparin) [4]; same study, 30 min): 74% | Percent reversal of LMWH anticoagulation, FXa (LMWH (LHN-1, Logiparin) [4]; same study, 30 min): 52% | Percent reversal of LMWH anticoagulation, TCT (LMWH (LHN-1, Logiparin) [4]; same study, 30 min): 96% | Percent reversal of LMWH anticoagulation, FNa (LMWH (LHN-1, Logiparin) [5]; [11]): 95% | Percent reversal of LMWH anticoagulation, FXa (LMWH (LHN-1, Logiparin) [5]; [11]): 64% | Percent reversal of LMWH anticoagulation, TCT (LMWH (LHN-1, Logiparin) [5]; [11]): 99% | Percent reversal of LMWH anticoagulation, ACT (LMWH (LHN-1, Logiparin) [5]; [12]): 87% | Percent reversal of LMWH anticoagulation, FNa (LMWH (LHN-1, Logiparin) [5]; [12]): 72% | Percent reversal of LMWH anticoagulation, FXa (LMWH (LHN-1, Logiparin) [5]; [12]): 34% | Percent reversal of LMWH anticoagulation, TCT (LMWH (LHN-1, Logiparin) [5]; [12]): 95% | Percent reversal of LMWH anticoagulation, ACT (LMWH (LHN-1, Logiparin) [5]; [13]): 98% | Percent reversal of LMWH anticoagulation, FNa (LMWH (LHN-1, Logiparin) [5]; [13]): 74% | Percent reversal of LMWH anticoagulation, FXa (LMWH (LHN-1, Logiparin) [5]; [13]): 52% | Percent reversal of LMWH anticoagulation, TCT (LMWH (LHN-1, Logiparin) [5]; [13]): 100% | Percent reversal of LMWH anticoagulation, ACT (LMWH (LHN-1, Logiparin) [5]; dogs, Logiparin, agent administered over 10 sec, 3 min post-administration): 87% | Total Toxicity Score [6]: -3.1 ± 1.5 | ΔCO [6]: -18% | ΔHr [6]: -9 beats per minute | ΔMAP [6]: -10 mm Mercury | ΔVO2 [6]: -12%

NCCCC[C@H](NC(=O)[C@H](CCCCN)NC(=O)[C@H](CCCCN)NC(=O)[C@H](CCCCN)NC(=O)CNC(=O)CNC(=O)[C@H](CCCCN)NC(=O)[C@H](CCCCN)NC(=O)[C@H](CCCCN)NC(=O)[C@H](CCCCN)NC(=O)CNC(=O)CNC(=O)[C@H](CCCCN)NC(=O)[C@H](CCCCN)NC(=O)[C@H](CCCCN)NC(=O)[C@H](CCCCN)NC(=O)CNC(=O)CNC(=O)[C@H](CCCCN)NC(=O)[C@H](CCCCN)NC(=O)[C@H](CCCCN)NC(=O)[C@H](CCCCN)NC(=O)CNC(=O)CNC(=O)[C@H](CCCCN)NC(=O)[C@H](CCCCN)NC(=O)[C@H](CCCCN)NC(=O)[C@H](CCCCN)NC(=O)[C@@H]1CCCN1)C(=O)O [[+20], P(K4 G2)4 K4] (H-PKKKKGGKKKKGGKKKKGGKKKKGGKKKK-OH)
ΔHR [7]: -38 | ΔMAP [7]: -31 | average total toxicity score (TTS±SD) [7]: -6.1±3.5 | ΔCO [7]: -40% | ΔVO2 [7]: -31% | platelet counts [8]: thrombocytopenia

PK4 S3 KPVK6 PKVSK6 G2 K4 [[+21]]
in vivo heparin reversal (summary) ([9]; dogs, standard heparin): nearly complete reversal | Percent reversal of heparin anticoagulation, ACT ([9]; dogs, 3 min post-administration): 81% | Percent reversal of heparin anticoagulation, ACT ([9]; dogs, 30 min): 85% | Percent reversal of heparin anticoagulation, APTT ([9]; same study, 3 min): 88% | Percent reversal of heparin anticoagulation, FNa ([9]; same study, 3 min): 59% | Percent reversal of heparin anticoagulation, FXa ([9]; same study, 3 min): 55% | Percent reversal of heparin anticoagulation, PT ([9]; same study, 3 min): 97% | Percent reversal of heparin anticoagulation, TCT ([9]; same study, 3 min): 91% | Percent reversal of heparin anticoagulation, APTT ([9]; same study, 30 min): 85% | Percent reversal of heparin anticoagulation, FXa ([9]; same study, 30 min): 49% | Percent reversal of heparin anticoagulation, PT ([9]; same study, 30 min): 93% | Percent reversal of heparin anticoagulation, TCT ([9]; same study, 30 min): 79% | Maximal thrombocytopenia [3]: -43% | ΔHR [7]: -21 | ΔMAP [7]: -35 | average total toxicity score (TTS±SD) [7]: -6.9±3.8 | ΔCO [7]: -44% | ΔVO2 [7]: -38% | platelet counts [8]: thrombocytopenia
